Source: patent US20140235630A1, “COMPOSITIONS AND METHODS FOR THE TREATMENT OF PROLIFERATIVE DISEASES” (Beth Israel Deaconess Medical Center, Inc., priority 2011, published 2014)

Legend:
[1] = Intratumoral Compound A concentration by LC/MS/MS; type: in vivo, mouse; conditions: 3 hours after last dose; Compound A 30 mg/kg/day, alone or with Compound B 50 mg/kg/day
Protocol: FIG. 6F is a graph showing the intratumoral Compound A concentrations as assessed by mass spectrometry of tumor tissues harvested from animals 3 hours after last treatment with Compound A (30 mg/kg/day), Compound B (50 mg/kg/day), or their combination.
Metabolites from 100 mg of mouse tumor samples were extracted using 80% methanol according to Yuan et al. (Nat. Protoc., 7: 872-881, 2012) 10 μL were injected and analyzed using a 5500 QTRAP hybrid triple quadrupole mass spectrometer (AB/SCIEX) coupled to a Prominence UFLC HPLC system (Shimadzu) via selected reaction monitoring (SRM) for the Q1/Q3 transition of 410.8/367.0 for 5-(2,6-dimorpholinopyrimidin-4-yl)-4-(trifluoromethyl)pyridin-2-amine (Compound A). ESI voltage was +4900V in positive ion mode using a dwell time of 4 msec and collision energy of 45. Approximately 15 data points were obtained for Compound A per LC/MS/MS experiment. Samples were delivered to the MS via hydrophilic interaction chromatography (HILIC) using a 4.6 mm i.d×10 cm Amide Xbridge column (Waters) at 350 μL/min. Gradients were run starting from 85% buffer B (HPLC grade acetonitrile) to 42% B from 0-5 minutes; 42% B to 0% B from 5-16 minutes; 0% B was held from 16-24 minutes; 0% B to 85% B from 24-25 minutes; 85% B was held for 7 minutes to re-equilibrate the column. Compound A eluted at approximately 3.50 min. […]

[2] = tested on: tumor tissue of MMTV-CreBRCA1^f/fp53+/− mice; experiment: Immunohistochemistry / immunoblot of tumor tissue for γH2AX, Ki67, p-ERK; parameters: species or system mouse; conditions: in vivo treated tumors
Protocol: FIG. 4B are immunohistochemical images of pre-treatment biopsies and post-Compound A treatment tumor tissues with antibodies against p-ERK, Ki67, and γH2AX showing an in vivo increase of γH2AX-positive cells after treatment with Compound A and proliferative activity at the “pushing margin.” Tumor-bearing mice were subjected to a pre-treatment biopsy and then treated with Compound A at 50 mg/kg/day. FIG. 6E are immunoblots with antibodies against actin, p-AKT, and γH2AX of tumor tissues harvested from animals 3 hours after last treatment with Compound A (30 mg/kg/day), Compound B (50 mg/kg/day), or their combination. FIG. 8A are immunohistochemical images of tumor tissues obtained from tumor-bearing […] pre-treatment (left column of images), at Day 10 of treatment (middle column of images), and post-treatment tissue at the time of progression (right column of images) following treatment with a combination of Compound A and Compound B. FIG. 8B is a graph of Ki67 (right bar graph in each treatment group) and γH2AX (left bar graph in each treatment group) levels in tumor biopsies in pre-treatment, on-treatment, and post-treatment at the time of progression groups. Ki67 and γH2AX were scored by counting and averaging the number of positive nuclei per high-power field (HPF). […] The protein concentration was determined using Bradford reagent (Biorad). […]

[3] = tested on: tumor microvasculature (CD31) of MMTV-CreBRCA1^f/fp53+/− tumors; experiment: Tumor vascularization: gross pathology, anti-CD31 stain, Chalkley count; type: in vivo, mouse
Protocol: All animal experiments were conducted in accordance with IACUC-approved protocols at Beth Israel Deaconess Medical Center, Boston, and at the University of Vall d'Hebron, Barcelona, Spain. Female […] were obtained by breeding BRCA1 conditional knockout mice from the NIH repository (01XC8, strain C57BL/6) (Xu et al. Nat. Genet., 22: 37-43, 1999); with MMTV-Cre (Jackson Laboratory B6129-TgN(MMTV-Cre)4Mam) (Wagner et al. Nucleic Acids Res., 25: 4323-4330, 1997) and p53 knockout (Taconic Farms, P53N12-M, C57BL/6) (Donehower et al. Nature, 356: 215-221, 1992). […] The floxed or wild type status of Brca1, the presence of the MMTV-Cre transgene and the p53 heterozygosity were determined by PCR. Mice were examined for the occurrence of tumors twice weekly. When tumormetrics were performed, the length and width of the tumor was determined using calipers, and the tumor volume was determined (width^2×length/2). Tumor volume was used as a measure of growth and was recorded as ratio to tumor volume at diagnosis. […] Proc. Natl. Acad. Sci. USA., 105: 17079-17084, 2008) and dosed at 50 mg/kg/day. For patient-derived tumor grafts consent for tumor use was obtained from patients under a protocol approved by the Vall d'Hebron Hospital Clinical Investigation Ethical Committee. Tumors were subcutaneously implanted in 6-week-old female HsdCpb:NMRI-Foxn1nu mice (Harlan Laboratories, Italy) Animals were supplemented with 1 μM estradiol (Sigma) in the drinking water. After tumor graft growth, tumor tissue was re-implanted into recipient mice, which were randomized upon implant growth. For immunohistochemistry we used anti-cleaved caspase 3 (CC3) (9661S, Cell Signalling, Rabbit polyclonal Asp175), anti-Ki67 (9106-S; Thermo Scientific, Rabbit monoclonal SP6). All other antibodies used are described in the immunoblotting section below. All immunohistochemistries were done as described previously (Burga et al. Breast Cancer Res., 13:[…], 2011) including antigen retrieval with a citrate-buffer. […]

Compound A levels in tumor tissues [1]: consistently in the micro-molar range
Structure (SMILES): Nc1cc(C(F)(F)F)c(-c2cc(N3CCOCC3)nc(N3CCOCC3)n2)cn1 [Compound A, 5-(2,6-dimorpholinopyrimidin-4-yl)-4-(trifluoromethyl)pyridin-2-amine]
percentage of tumor cells that express γH2AX / γH2AX in tumor lysates [2]: substantial increase
gross pathology of tumors ([3]; 50 mg/kg/day via gavage, 2 and 6 weeks): central pallor and, eventually, central necrosis
Chalkley count of CD31-positive microvessels: size and number of blood vessels ([3]; before versus after treatment): starkly reduced
tumor microvasculature, anti-CD31 stain ([3]; center of tumor treated for 6 weeks): diminished
